Experimental data taken from patent US7365057B2, “Modified 2′ and 3′-nucleoside prodrugs for treating Flavivridae infections” (priority 2002, dated 2008).

How the values were obtained:
HCV = conditions: ribavirin alone; Davis, Gastroenterology 2000; cited from earlier work
[1] = system: Vero 76, African green monkey kidney cells

Row | Molecule | effect on serum levels of HCV-RNA (HCV) | patients in whom serum amino transferase levels are reduced to normal (HCV) | CC50 (MT-4) | CC50 (BHK) | CC50 [1]
1 | NC(=O)c1ncn([C@@H]2O[C@H](CO)[C@@H](O)[C@H]2O)n1 [Ribavirin, 1-β-D-ribofuranosyl-1-1,2,4-triazole-3-carboxamide] | does not lower serum levels of HCV-RNA | 40% | – | – | –
2 | β-D-2′-C-methyl-7-methyl-6-phenyl-3,3a,5,8a-tetrahydro-1,3,4,5,7a-penta-aza-s-indacen-8-one [Compound F] | – | – | > 100 µM | > 100 µM | > 100 µM
